According to PMC11493595, “Stretching the structural envelope of imatinib to reduce β-amyloid production by modulating both β- and γ-secretase cleavages of APP” (Frontiers in Chemistry, 2024):
Like-named read-outs stand apart in the source and are kept apart here.

Columns and labels:
N2a695 cells [1] = assay: Aβ38, Aβ40, Aβ42 in conditioned media of N2a695 cells, MSD ELISA; assay type: cell-based; details: N2a695 cell supernatant, 5 h, single experiment
N2a695 cells [2] = assay: as above; assay type: cell-based; details: N2a695 cell supernatant, 5 h, single experiment; remark: listed apart in the source
Protocol: (§1) N2a695 were cultured in 1:1 OptiMem Reduced Serum Media (Life Technologies): Dulbecco’s Modified Eagle Medium ([+] 4.5 g/L D-glucose [+] L-Glutamine; [−] Sodium pyruvate (Life Technologies) supplemented with 5% fetal bovine serum, 0.4% Penstrep and 0.4% Geneticin and incubated at 37°C in 5% CO2. Antibodies were obtained from The Laboratory of Molecular and Cellular Neuroscience at The Rockefeller University. Human Aβ40 and Aβ42 ELISA plates (Life Technologies) and Plus MSD (Mesoscale Discovery) plates for Aβ Peptide (Aβ38, Aβ40 and Aβ42) Panel 1 (6E10) Kit (Catalog number K15200G) were obtained from Thermo Fisher, Life Technologies and Meso Scale Discovery.
(§2) N2a695 cells were used to screen all new compounds and in the follow-up studies with compounds found active in the preliminary screen. In a typical experiment, 6-well tissue culture plates (Corning) were seeded at 4.0 × 10^5–4.5 × 10^5 N2a695 cells/mL, 2 mL/well for overnight incubation. When cells were >95% confluent, media were exchanged with fresh media containing 10 µM solutions of compounds or DMSO carrier alone and cells were incubated at 37°C in 5% CO2 for 5 h. Culture media were collected and soluble Aβ concentrations in the media were determined by ELISA or MSD plates for human Aβ peptides as per manufacturer instructions. Signals for Aβ were measured using Perkin Elmer Envision and SQ120 MSD ELISA reader. Follow-up studies with N2a695 cells were performed similarly.
Similarly, we evaluated all IMTi-1 and IMTi-2 analogs, including the Boc-protected compounds, using N2a695 cells. […] To further examine the activities of the active analogs and whether IMTi’s has any bias on amyloidogenic vs. nonamyloidogenic cleavage of APP, we retested dozens of IMTi-1 and 2 analogs, including several found active in the screening assay and some tested for the first time using N2a695 cells as above, and performed MSD ELISA of the conditioned media to measure Aβ40, Aβ38, and Aβ42 peptides simultaneously.

N2a695 cells [3] = assay: Screening of Aβ production in N2a695 cells (Aβ ELISA of cell supernatants); assay type: cell-based; details: N2a695 cells; for Aβ40 levels / Aβ production in the screen (Fig. S1): 10 µM
Protocol: as §1, §2
Specifically, we exposed N2a695 cells to increasing concentrations of each compound and measured the production of Aβ38, 40, and 42. […] Remarkably, this occurs for all Aβ peptides tested shorter than 40 amino acids (Figure 2C). Moreover, for some compounds that modulate γ-secretase activity most conspicuously at 5 μM, this effect vanishes at 10 μM, relative to controls (Figure 2B, C). […]

[4] = system: β- and γ-cleavages of APP; assay: Aβ in N2a cells transiently transfected with APP-FL or APP99 (APP-βCTF): BACE vs γ-secretase cleavage; assay type: cell-based; details: N2a cells transiently transfected with APP695 (APP-FL) or APP C99, 5 h
Protocol: To determine effects of compounds on BACE1 vs. GS inhibition, we used N2a cells transiently transfected with full length APP (APP-FL) or with APP99 (APP-βCTF) as described previously ([Netzer et al., 2017]; [Sun et al., 2019]). After 48 h, media were removed and fresh media containing compound 1a and analogs were added. Following 5 h of incubation, cell supernatants were collected, and analyzed using MSD-ELISA for Aβ and sAPPα and western blot for sAPPβ.
We focused on IMTi-1 and its analogs 1d, 1f and 1p. […] To test whether these compounds lower Aβ levels by affecting the BACE and/or γ-secretase cleavages, we transfected wild-type (wt) cells with APP-FL and APP βCTF (C99), respectively, and incubated the cells with IMTi-1 (isomer) and analogs 1d, 1f and 1p. We used BACE inhibitor, MK8931, and γ-secretase inhibitor, DAPT, as controls and performed the experiments and processed the results as described previously ([Sun et al., 2019]).

[5] = In vivo brain permeability and retention, LC-MS/MS of brain and plasma; design: species or system C57BL/6J WT mice; details: for concentration at 4 h: C57BL/6J, mouse, ip, 2 months old WT mice, 50 mg/kg i.p., 4 h after injection, mesylate salt
Protocol: All procedures involving animals were approved by The Rockefeller University Institutional Animal Care and Use Committee and were in accordance with the National Institutes of Health guidelines. […] Mice were euthanized 4 h post drug administration and brain hemispheres and plasma were harvested and collected in pre-weighted tubes and snap-frozen in liquid nitrogen. To measure brain and plasma concentrations of the specific compounds, mouse brain tissue was homogenized and extracted using Ethanol, and plasma samples were extracted using Acetonitrile. Concentration of the drug and metabolites in brain and in plasma was determined by LC-MS/MS analysis.
After tubes were weighed to calculate brain weight and thawed to room temperature, 1 mL of EtOH (200 Proof) was added to the microcentrifuge tubes containing the harvested right brain hemispheres. 10 μL of 1 µM internal standard (ABG190, a synthetic analog of 1a) was added to each tube and samples were sonicated to homogeneity (∼2 min). Tubes were shaken at 40 min at room temperature (1K RPM) and centrifuged for 8 min at 13K RPM. The supernatant (0.9 mL) was transferred to a new collection tube and 0.5 mL EtOH was added to the pellet for a second round of extraction as described above. 600 μL of the supernatant was combined with the first collection before samples were submitted for LCMS-MS analysis ([Sun et al., 2019]).
300 μL of acetonitrile was added to collected blood samples. 10 μL of 1 µM internal standard (ABG190) was added to each tube and samples were sonicated to homogeneity (∼2 min). Tubes were […] at 13 K RPM for 9 min 300 μL of the supernatant was collected and combined with 500 µL of 5 mM ammonium formate before samples were submitted for LCMS-MS analysis ([Sun et al., 2019]).

Row | Structure (SMILES) | activity at 5 µM (N2a695 cells [1]; read-out: % Aβ38 of DMSO ctrl) [%] | activity at 5 µM (N2a695 cells [1]; read-out: % Aβ40 of DMSO ctrl) [%] | activity at 5 µM (N2a695 cells [1]; read-out: % Aβ42 of DMSO ctrl) [%] | activity at 10 µM (N2a695 cells [2]; read-out: % Aβ38 of DMSO ctrl) [%] | activity at 10 µM (N2a695 cells [2]; read-out: % Aβ40 of DMSO ctrl) [%] | activity at 10 µM (N2a695 cells [2]; read-out: % Aβ42 of DMSO ctrl) [%] | Aβ40 levels (N2a695 cells [3]) [%] | Activity in Aβ production assays (N2a695 cells [3]) | Aβ production in the screen (Fig. S1) (N2a695 cells [3]) | BACE and γ-secretase cleavage of APP, Aβ levels [4] | Brain exposure ([5]; 2 months old mice, 4 h post administration) | concentration at 4 h ([5]; brain, read-out: Brain concentration) [ng/g] | concentration at 4 h ([5]; plasma, read-out: Plasma concentration) [ng/mL]
1 | Cc1ccccc1Nc1nccc(-c2cccc(NC(=O)c3ccc(CN4CCN(C)CC4)cc3)c2)n1 [Compound 1a] | 105 | 57 | 49 | 86 | 40 | 35 |  |  |  |  |  |  | 
2 | Cc1ccccc1Nc1nccc(-c2cncc(NC(=O)c3ccc(CNCC(C)(C)C)cc3)c2)n1 [Compound 1h] | 106 | 64 | 58 | 80 | 43 | 43 |  |  |  |  |  |  | 
3 | Cc1ccc(Nc2nccc(-c3ccc(CNC4CCCCC4)cc3)n2)cc1NC(=O)c1cccnc1 [Compound 2b] | 93 | 90 | 88 | 74 | 71 | 74 |  |  |  |  |  |  | 
4 | Cc1ccccc1Nc1nccc(-c2cncc(NC(=O)c3ccc(C4CCCNC4)cc3)c2)n1 (stereo not drawn) [Compound 1L] | 107 | 48 | 43 | 52 | 21 | 17 |  |  |  |  |  |  | 
5 | Cc1ccccc1Nc1nccc(-c2cccc(NC(=O)c3ccc(CNCC(C)(C)C)cc3)c2)n1 [Compound 1i] | 106 | 56 | 58 | 85 | 41 | 46 |  |  |  |  |  |  | 
6 | Cc1ccc(CN2CCN(Cc3ccc(C(=O)Nc4cccnc4)cc3)CC2)cc1Nc1ncccn1 [IMTi-3] |  |  |  |  |  |  | 93 | inactive |  |  |  |  | 
7 | Cc1ccccc1Nc1nccc(-c2cncc(NC(=O)c3ccc(C4CCCN(C)C4)cc3)c2)n1 (stereo not drawn) [Compound 1n] | 112 | 63 | 56 | 95 | 42 | 38 |  |  |  |  |  |  | 
8 | Cc1ccccc1Nc1nccc(-c2cccc(NC(=O)c3ccc(CN(C(=O)OC(C)(C)C)C4CCCCC4)cc3)c2)n1 [Compound 1k-Boc] |  |  |  |  |  |  |  |  | increase in Aβ production |  |  |  | 
9 | Cc1ccc(Nc2nccc(-c3ccc(CN4CCN(C)CC4)cc3)n2)cc1NC(=O)c1cccnc1 [IMTi-2] |  |  |  |  |  |  | 68 | active |  |  |  |  | 
10 | Cc1ccccc1Nc1nccc(-c2cncc(NC(=O)c3ccc(CCN(C)C)cc3)c2)n1 [Compound 1e] | 99 | 57 | 54 | 91 | 46 | 44 |  |  |  |  |  |  | 
11 | Cc1ccccc1Nc1nccc(-c2cncc(NC(=O)c3ccc(CN4CCNCC4)cc3)c2)n1 [Compound 1b] | 95 | 56 | 53 | 61 | 34 | 33 |  |  |  |  |  |  | 
12 | Cc1ccccc1Nc1nccc(-c2cccc(NC(=O)c3ccc(CN(CC(C)(C)C)C(=O)OC(C)(C)C)cc3)c2)n1 [Compound 1i-Boc] |  |  |  |  |  |  |  |  | increase in Aβ production |  |  |  | 
13 | CN(C)CCc1ccc(C(=O)Nc2cccc(-c3ccnc(Nc4cccnc4)n3)c2)cc1 [Compound 1p] | 58 | 41 | 38 | 24 | 18 | 15 |  |  |  | lower BACE and γ-secretase cleavage of APP |  |  | 
14 | Cc1ccccc1Nc1nccc(-c2cccc(NC(=O)c3ccc(CCN(C)C)cc3)c2)n1 [Compound 1f] | 113 | 52 | 45 | 80 | 29 | 26 |  |  |  | lower BACE and γ-secretase cleavage of APP | high brain exposure | 92 | 550
15 | Cc1ccccc1Nc1nccc(-c2cccc(NC(=O)c3ccc(CNC4CCCCC4)cc3)c2)n1 [Compound 1k] | 120 | 60 | 56 | 92 | 38 | 38 |  |  |  |  |  |  | 
16 | Cc1ccccc1Nc1nccc(-c2cncc(NC(=O)c3ccc(CNC4CCCCC4)cc3)c2)n1 [Compound 1j] | 112 | 83 | 75 | 123 | 73 | 65 |  |  |  |  |  |  | 
17 | Cc1ccccc1Nc1nccc(-c2cccc(NC(=O)c3ccc(N4CCN(C)CC4)cc3)c2)n1 [Compound 1d] | 60 | 34 | 28 | 22 | 14 | 11 |  |  |  | lower BACE and γ-secretase cleavage of APP |  |  | 
